# Laboratory results reported in US9592224B2, “Substituted benzothiazoles and therapeutic uses thereof for the treatment of human diseases” (CONSEJO SUPERIOR DE INVESTIGACIONES CIENTÍFICAS, priority 2013, dated 2017).
# What was measured:
# [1] = target: T1, recombinant human enzyme CK-1δ (Homo sapiens, UniProt P48730); test: Enzyme inhibition assay, Luminometer Kinase-GLO method, CK-1δ; assay type: biochemical; details: for IC50: casein substrate, 4 μM ATP, 60 minutes at 30° C., read-out: Inhibitory Concentration 50 (IC50) CK-1δ
# T1 construct: purchased Millipore Iberica SAU
# Procedure: (§1) Enzyme inhibition assays were performed using the Luminometer Kinase-GLO® method. Recombinant human enzyme CK-1δ was purchased from Millipore Iberica SAU and recombinant human enzyme CK-1ε was purchased from Invitrogen. The phosphorylation substration chosen was casein. The Luminescent Kinase Kit (catalogue no. V6711) was obtained from Promega. ATP and other reagents were purchased from Sigma-Aldrich (St. Louis, Mo.).
# (§2) The assays were conducted in buffer using 96-well plates. In a typical assay: 10 μL of the test compound (dissolved in dimethylsulfoxide at a concentration of 1 mM and, in turn, dissolved in buffer to the required concentration for the experiment) and 10 μL (16 ng) of the CK-1δ enzyme or 10 μL (50 ng) of the CK-1ε enzyme row were added to each well followed by 20 μL of buffer containing 0.1% casein as substrate and 4 μM of ATP. The assay buffer contained: 50 mM HEPES, pH 7.5; 0.01% Brij-35; 10 mM MgCl2; 1 mM EGTA and 0.01% NaN3. […] After incubating for 60 minutes at 30° C., the enzymatic reaction was stopped using 40 μL of Kinase-GLO® reagent. Luminescence was measured after ten minutes using a FLUOstar Optima (BMG Labtechnologies GmbH, Offenburg, Germany) multimode reader. The activity was proportional to the difference between the total and consumed ATP. Inhibition activities were calculated in accordance with the maximum activity measured in the absence of inhibitor. IC50 is defined as the concentration of each compound that reduces enzyme activity by 50% with respect to that obtained without inhibitor.
# [2] = in vitro; details: pig, pH 7.4; for Papp at […]: PAMPA
# Procedure: To filter the samples, PVDF membrane filters (diameter: 30 mm, pore size: 0.45 μm) were used.
# Ten reference compounds were selected, whose blood-brain barrier passage is known and public, in order to validate the experiment. […] The solutions were filtered. Next, 180 μL of a PBS/ethanol (70/30) solution were added to each well of the acceptor plate. The donor plate was impregnated with 4 μL of a porcine brain lipid solution dissolved in dodecane (20 mg mL^−1). After 5 min, 180 μL of dissolution of each compound were added to this plate. Of the compounds whose penetration into the central nervous system was to be assessed, between 1-2 mg were taken and dissolved in 1,500 μL of ethanol and 3,500 μL of PBS (pH=7.4), filtered and added to the donor 96-well plate. The donor plate was then placed on the acceptor forming a kind of “sandwich” and allowed to incubate for 2 hours and 30 min at 25° C. The compounds, by passive transport, will move from the donor plate through the porcine brain lipid to the acceptor plate. After 2 hours and 30 min, it was carefully removed from the donor plate. The concentration and absorbance, both of the commercial compounds and the synthesised derivatives evaluated in the acceptor and donor plates were determined using a UV absorbance reader. Each sample was analysed at different wavelengths (3 to 5) in three wells and in at least two independent experiments.
# [3] = target: T2, recombinant human enzyme CK-1ε (Homo sapiens, UniProt P49674); test: Enzyme inhibition assay, Luminometer Kinase-GLO method, CK-1ε; assay type: biochemical; details: for IC50: casein substrate, 4 μM ATP, 60 minutes at 30° C., read-out: Inhibitory Concentration 50 (IC50) CK-1ε
# T2 construct: purchased Invitrogen
# Procedure: as §1, §2
# [4] = literature value, Di et al, 2003; cited from earlier work
# T2 sequence (P49674 whole entry): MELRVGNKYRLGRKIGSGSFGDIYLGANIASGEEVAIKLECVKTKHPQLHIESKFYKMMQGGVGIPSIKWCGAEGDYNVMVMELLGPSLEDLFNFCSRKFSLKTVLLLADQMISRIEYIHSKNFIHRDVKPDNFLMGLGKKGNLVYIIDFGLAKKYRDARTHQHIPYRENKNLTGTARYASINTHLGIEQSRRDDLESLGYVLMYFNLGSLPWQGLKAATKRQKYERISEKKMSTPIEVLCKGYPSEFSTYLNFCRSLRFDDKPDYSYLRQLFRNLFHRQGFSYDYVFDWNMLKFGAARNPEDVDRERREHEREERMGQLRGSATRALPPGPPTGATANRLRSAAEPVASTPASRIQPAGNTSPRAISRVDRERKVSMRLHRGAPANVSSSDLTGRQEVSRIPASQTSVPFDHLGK
# T1 sequence (P48730 whole entry): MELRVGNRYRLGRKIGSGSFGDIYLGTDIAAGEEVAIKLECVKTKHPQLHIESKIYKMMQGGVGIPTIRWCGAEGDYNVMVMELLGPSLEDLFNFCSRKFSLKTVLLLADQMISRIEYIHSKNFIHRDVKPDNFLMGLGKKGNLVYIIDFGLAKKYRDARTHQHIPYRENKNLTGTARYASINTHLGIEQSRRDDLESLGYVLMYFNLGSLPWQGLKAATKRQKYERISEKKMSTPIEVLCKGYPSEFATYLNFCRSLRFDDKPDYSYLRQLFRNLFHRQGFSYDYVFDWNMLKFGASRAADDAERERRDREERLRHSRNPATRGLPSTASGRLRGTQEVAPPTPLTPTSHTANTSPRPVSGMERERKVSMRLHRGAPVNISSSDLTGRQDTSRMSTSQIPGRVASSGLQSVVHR
SMILES,IC50 [1],Papp at […] [2],IC50 [3],also measured
"O=C(Cc1ccc(Cl)cc1)Nc1nc2ccc(C(F)(F)F)cc2s1 [Compound 1, N-(6-trifluoromethylbenzothiazole-2-yl)-2-(4-chlorophenyl)acetamide]",65 nM,9.6 ± 0.1 ×10⁻⁶ cm/s,550 nM,
"COc1ccc(CC(=O)Nc2nc3ccc(C(F)(F)F)cc3s2)cc1 [Compound 3, N-(6-trifluoromethylbenzothiazole-2-yl)-2-(4-methoxyphenyl)acetamide]",33 nM,14.6 ± 0.1 ×10⁻⁶ cm/s,700 nM,
"O=C(Cc1cccc(Cl)c1)Nc1nc2ccc(C(F)(F)F)cc2s1 [Compound 4, N-(6-trifluoromethylbenzothiazole-2-yl)-2-(3-chlorophenyl)acetamide]",23 nM,5.9 ± 0.5 ×10⁻⁶ cm/s,840 nM,
"Cc1ccc2nc(NC(=O)Cc3cccc(Cl)c3)sc2c1 [Compound 5, N-(6-methylbenzothiazole-2-yl)-2-(3-chlorophenyl)acetamide]",83 nM,5.6 ± 0.8 ×10⁻⁶ cm/s,880 nM,
"COc1cccc(CC(=O)Nc2nc3ccc(C(F)(F)F)cc3s2)c1 [Compound 6, N-(6-trifluoromethylbenzothiazole-2-yl)-2-(3-methoxyphenyl)acetamide]",42 nM,11.2 ± 2 ×10⁻⁶ cm/s,690 nM,
"COc1ccccc1CC(=O)Nc1nc2ccc(C(F)(F)F)cc2s1 [Compound 8, N-(6-trifluoromethylbenzothiazole-2-yl)-2-(2-methoxyphenyl)acetamide]",10 nM,11.3 ± 2.1 ×10⁻⁶ cm/s,800 nM,
"O=C(Cc1ccccc1)Nc1nc2ccc(C(F)(F)F)cc2s1 [Compound 12, N-(6-trifluoromethylbenzothiazole-2-yl)-2-phenylacetamide]",47 nM,10.4 ± 3.9 ×10⁻⁶ cm/s,760 nM,
"O=C(Cc1ccccc1)Nc1nc2ccccc2s1 [Compound 14, N-(benzothiazole-2-yl)-2-phenylacetamide]",330 nM,12.7 ± 1.2 ×10⁻⁶ cm/s,2310 nM,
"O=C(Cc1cccc(Cl)c1)Nc1nc2ccccc2s1 [Compound 20, N-(benzothiazole-2-yl)-2-(3-chlorophenyl)acetamide]",850 nM,10.6 ± 0.3 ×10⁻⁶ cm/s,2860 nM,
"COc1ccccc1CC(=O)Nc1nc2ccc(C)cc2s1 [Compound 30, N-(6-methylbenzothiazole-2-yl)-2-(2-methoxyphenyl)acetamide]",290 nM,6.2 ± 0.5 ×10⁻⁶ cm/s,4930 nM,
"COc1cc(/C=C/C(=O)Nc2nc3ccc(S(=O)(=O)N(C)C)cc3s2)cc(OC)c1OC [Compound 57, (E)-N-(6-(N,N-dimethylsulfamoyl)benzothiazole-2-yl)-3-(3,4,5-trimethoxyphenyl) acrylamide]",,,,CK-1δ inhibition % @ 10 μM ([1]; @ 10 μM): 10% @; CK-1ε inhibition % @ 10 μM ([3]; @ 10 μM): 10% @
"COc1ccccc1CC(=O)Nc1nc2ccc(F)cc2s1 [Compound 59, N-(6-fluorobenzothiazole-2-yl)-2-(2-methoxyphenyl)acetamide]",1170 nM,,4510 nM,
"CN1C(C(=O)Nc2ccccn2)=C(O)c2ccccc2S1(=O)=O [Piroxicam, reference compound]",,,,Pe (10^−6 cm s^−1) PAMPA-blood-brain barrier permeation ([2]; […]): 0.2 ± 0.1 10^−6 cm s^−1; Bibl. PAMPA-blood-brain barrier permeation (Pe) [4]: 2.5 10^−6 cm s^−1
"CN(C)CCCN1c2ccccc2Sc2ccccc21 [Promazine, reference compound]",,8.5 ± 0.1 ×10⁻⁶ cm/s,,Bibl. PAMPA-blood-brain barrier permeation (Pe) [4]: 8.8 10^−6 cm s^−1

# Second part, led by results:
IC50 [1],Papp at […] [2],IC50 [3],SMILES,also measured
15 nM,10.6 ± 0.1 ×10⁻⁶ cm/s,370 nM,COc1cc(CC(=O)Nc2nc3ccc(C(F)(F)F)cc3s2)cc(OC)c1OC [Compound 10],
2220 nM,11.2 ± 0.9 ×10⁻⁶ cm/s,,"COc1ccc2nc(NC(=O)Cc3ccccc3OC)sc2c1 [Compound 51, N-(6-methoxybenzothiazole-2-yl)-2-(2-methoxyphenyl)acetamide]",inhibition at 10 µM [3]: 33%
5760 nM,,,"CCOc1ccc2nc(NC(=O)Cc3ccccc3OC)sc2c1 [Compound 52, N-(6-ethoxybenzothiazole-2-yl)-2-(2-methoxyphenyl)acetamide]",inhibition at 10 µM [3]: 46%
1240 nM,,16500 nM,"COc1ccc2nc(NC(=O)Cc3ccc(Cl)c(Cl)c3)sc2c1 [Compound 53, N-(6-methoxybenzothiazole-2-yl)-2-(3,4-dichlorophenyl)acetamide]",
3430 nM,,14200 nM,"CCOc1ccc2nc(NC(=O)Cc3ccc(Cl)c(Cl)c3)sc2c1 [Compound 54, N-(6-ethoxybenzothiazole-2-yl)-2-(3,4-dichlorophenyl)acetamide]",
6650 nM,,17700 nM,"COc1ccc2nc(NC(=O)Cc3cc(OC)c(OC)c(OC)c3)sc2c1 [Compound 55, N-(6-methoxybenzothiazole-2-yl)-2-(3,4,5-trimethoxyphenyl)acetamide]",
1430 nM,,9830 nM,"CCOc1ccc2nc(NC(=O)Cc3cc(OC)c(OC)c(OC)c3)sc2c1 [Compound 56, N-(6-ethoxybenzothiazole-2-yl)-2-(3,4,5-trimethoxyphenyl)acetamide]",
